{"source": "patent US20250066423A1", "about": "“SESTRIN-MAPK COMPLEX INHIBITORS” (Sentcell Ltd, priority 2021, published 2025)", "key": {"[1]": {"system": "PBMCs from elderly donors, heat-inactivated SARS-COV2", "assay": "COVID-specific antibodies in PBMCs from elderly donors (ELISA)", "type": "cell-based, human", "settings": "PBMCs from elderly donors (75-95 years), 10 uM"}, "sestrin mRNA": {"system": "sestrin mRNA", "assay": "Sestrin mRNA expression in spleens of DOS treated old mice (qPCR)", "type": "in vivo", "settings": "single dose, from day ten", "experimental": "FIG. 13 illustrates the level of Sestrin in DOS-treated murine blood and tissues. (A-B) Old mice were inoculated subcutaneously with DOS46L compound (0.1 mg/kg or 1 mg/kg). Blood was withdrawn at 0, 48, 72 hours and 8 weeks after the inoculation. Pharmacodynamics of Sestrin 2 were analysed by FACS in CD4+ T cell population. […] Untreated age-matched controls are shown. (D) 72 hr after DOS treatment, mice were sacrificed and old tissues were collected to analyse Sestrin levels in different organs by immunoblotting. **p<0.01, *p<0.05.\n• 1. Transduced cells were collected • 2. Cell suspension was centrifugated and the cell pellet resuspended in warm PBS with 5 μM of CTV • 3. Followed an incubation of 10 min at 37° C. • 4. Cold PBS was added and cells were centrifugated • 5. Cells were then resuspended in medium and counted • 6. An aliquot of these cells were checked by FACS • 7. Cells were then stimulated with DOS in 200 μL and left for 12 days in culture RNA Extraction, Retro-Transcription and qPCR • 1. CD4+ cells were purified from mouse spleen using appropriate microbeads (Miltenyi) • 2. Total RNA from CD4+ cells was extracted using the “PureLink RNA Mini Kit” (Invitrogen). • 3. RNA concentration was acquired by NANO-DROP spectrophotometer (Thermo-Scientific). • 4. […]"}, "H1N1 PR8/54": {"system": "H1N1 PR8/54", "type": "in vivo, mice"}, "H1N1": {"system": "H1N1", "assay": "Autoptic lung analysis and viral clearance (qPCR of viral protein PA) in lungs of old mice", "settings": "mouse, in vivo"}, "[2]": {"system": "CD95+ CD62L+ CD44− CD4+ memory T cells", "type": "in vivo, mice", "settings": "examined up to 8 weeks"}, "[3]": {"system": "Breast cancer cell line (MCF-7)", "assay": "Cancer cell death by FACS live-dead staining", "type": "cell-based", "settings": "20 uM, 48 hours", "experimental": "(§1) (Left) Immortalized paediatric neuroblastoma cell line (sh-sy5y) was treated at different concentrations of DOS46L and DOS144D (from 1 uM to 20 uM) for 48 hours, then analysed by FACS with live-dead staining. (Right) Breast cancer cell line (MCF-7) was treated at the fixed concentration of DOS46L and DOS144D (20 uM) for 48 hours, then analysed by FACS with live-dead dye staining. UN depicts untreated controls. Results of triplicate cultures are shown."}, "[4]": {"system": "paediatric neuroblastoma cell line (sh-sy5y)", "assay": "Cancer cell death by FACS live-dead staining", "type": "cell-based", "settings": "1 uM to 20 uM, 48 hours", "experimental": "as §1"}}, "note": "Peptide text beside a SMILES is read from it."}
{"smiles": "CC[C@H](C)[C@@H]1NC(=O)[C@H](Cc2ccccc2)NC(=O)[C@H](C)NC(=O)[C@H](C(C)C)NC(=O)[C@@H]2CCCN2C1=O", "note": "[DOS46L] (cyclo(AFIPV))", "values": [{"measurement": "COVID-specific IgG antibodies", "setting": "[1]", "result": "stimulation of COVID-specific antibodies"}, {"measurement": "sestrin mRNA expression", "setting": "sestrin mRNA", "result": "Long term mRNA silencing of sestrin expression"}, {"measurement": "relative effectiveness at low dose", "setting": "H1N1 PR8/54; 0.1. mg/Kg", "result": "more effective at a very low dose"}, {"measurement": "survival data, comparison of compounds", "setting": "H1N1 PR8/54; old mice, vaccination with DOS, H1N1 PR8/54", "result": "similar"}, {"measurement": "lung necrosis", "setting": "H1N1", "result": "protection from lung necrosis"}, {"measurement": "stem-like memory T cell generation", "setting": "[2]", "result": "permanent stem-like generation"}, {"measurement": "cancer cell death", "setting": "[3]", "result": "induction of cancer cell death"}, {"measurement": "cancer cell death", "setting": "[4]", "result": "induction of cancer cell death"}]}
